Data published in ChEMBL document CHEMBL1150588, “New nitrogenous eudesmane-type compounds isolated from the Caribbean sponge Axinyssa ambrosia” (J Nat Prod, 2002).

How the values were obtained:
HT-29 = experiment: Cytotoxicity against human HT-29 cells; type: functional, cell-based
P388 = experiment: Cytotoxicity against mouse P388 cells; type: functional, cell-based
Madracis mirabilis [1] = experiment: Toxicity against Madracis mirabilis polyps assessed as mortality at 7.75 ug/ml after 2 hrs; conditions: in vivo
A549 = experiment: Cytotoxicity against human A549 cells; type: functional, cell-based
Madracis mirabilis [2] = experiment: Toxicity against Madracis mirabilis polyps assessed as mortality at 10 ug/ml after 2 hrs; conditions: in vivo
[3] = Toxicity against Madracis mirabilis polyps assessed as mortality after 2 hrs; type: organism-based; conditions: in vivo; read-out: LD50
Madracis mirabilis [4] = experiment: Toxicity against Madracis mirabilis assessed as retracted polyps at 10 ug/ml after 24 hrs; conditions: in vivo
Madracis mirabilis [5] = experiment: Toxicity against Madracis mirabilis assessed as retraction recovery at 10 ug/ml after 48 hrs; conditions: in vivo

Row | Compound | IC50 (HT-29) [mg/L] | IC50 (P388) [mg/L] | Activity (Madracis mirabilis [1]) | IC50 (A549) [mg/L] | Activity (Madracis mirabilis [2]) | LC50 at 2 h [3] [mg/L] | Activity (Madracis mirabilis [4]) | Activity (Madracis mirabilis [5]) [%]
1 | C=C(C)[C@H]1CC[C@@]2(C)CCC[C@@](C)(N)[C@@H]2C1.Cl (relative stereo) | 2 | 2 | Non-toxic | 2 | Toxic | 9.4 | – | –
2 | C=C(C)[C@H]1CC[C@@]2(C)CCC[C@@](C)(N)[C@@H]2C1 (relative stereo) | – | – | – | – | – | – | Active | 40
